The target in experiment [1] is T1, human CCR2 (Homo sapiens, UniProt P41597). Briefly: CCR2 binding assay ([125I]-MCP-1 displacement, SPA). The settings on record: human CCR2-HEK293 EBNA membranes. Set-up: expressed in transfected cells; host or cells: HEK293 EBNA cells (membrane preparation). The procedure: The binding of test compounds to the CCR2 receptor was evaluated using [^125I]-MCP-1.
Briefly, 25 μL assay buffer (25 mM HEPES, pH 7.4, 5 mM MgCl2, 1 mM CaCl2, 0.2% (w/v) protease free BSA, 100 μg/mL bacitracine and 0.1 M NaCl) was placed into total binding wells and 25 μL unlabelled ligand (0.4 μM MCP-1, for determination of non-specific binding) was placed into non-specific binding wells. [^125I]-MCP-1 (25 μL), human CCR2-HEK293 EBNA membrane preparation (25 μL) and SPA beads (25 μL) were added to all the wells. The wells were incubated for 4 h and counted for 1 min/well in a Perkin Elmer Topcount NXT.
The SPA beads (wheat germ agglutinin (WGA) PEI Type A PVT 0.25 mg/well) were prepared by reconstituting lyophilised bead to 100 mg/mL with de-ionised water and further diluting in assay buffer to give 10 mg/mL. The radioligand ([^125I]-MCP-1) was prepared by dilution in assay buffer to give 0.32 μCi/mL, ˜17600 dpm/25 μL (specific activity 2000 Ci/mMol). The final assay concentration was 0.04 nM. The human CCR2-HEK293 EBNA cells membranes were prepared as follows: cells were spun down at 1000×g for 3 min at room temperature, washed in PBS and spun down again. The cells were then homogenised with an Ultra Turrax at setting 6 in 5-10 mL ice cold buffer A (EDTA 10 mM, HEPES 10 mM, pH 7.4) for 10 sec. Following dilution with further ice cold buffer A and spinning at 20000×g for 20 min at 4° C., the mixture was re-homogenised in 5-10 mL ice cold buffer B (EDTA 0.1 mM, HEPES 10 mM, pH 7.4) and spun at 20000×g for 20 min at 4° C. The protein was assayed and re-suspended in buffer C (Buffer B+1 tablet/10 mL of Roche protease inhibitor cocktail) at 3 mg/mL. Before use, the membranes were thawed and diluted with assay buffer to give 80 μg/mL (2 μg/well).
Specific binding was determined as the difference between total binding in the absence of antagonist and binding in the presence of excess antagonist (non-specific binding). Data was expressed as a percentage of specific binding and analysed by a 4-parameter logistic equation using GraphPad Prism 4 software (GraphPad, San Diego, Calif., USA) to yield IC50 values. Ki values were calculated from the IC50 values using the correction for radioligand concentration.

Experiment [2] has as its target T1, human CCR2. The experiment can be described thus: CCR2 functional calcium assay (FLIPR calcium flux, hMCP-1 challenge). It is filed as cell-based. Set-up: expressed in transfected cells; host or cells: HEK293 EBNA cells. The following applies: HEK293 EBNA cells transfected with human CCR2, hMCP-1 challenge; read-out: Functional CCR2 fKi. An outline of the steps: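 FLIPR Fluo-4 calcium flux in HEK293 EBNA cells transfected with human CCR2, with non-transfected cells as control. Compounds (10-point 1:3 curves, typically 30 μM to 0.5 nM) were added in HBSS/20 mM HEPES/0.1% BSA, pH 7.4, followed by MCP-1 challenge. Peak minus basal signal was expressed as % of EC50 MCP-1 response.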
On the technique in general: Calcium assays in cells follow changes in intracellular calcium, usually with a dye or a luminescent sensor.

The test system of experiment [3] is rat model of STZ induced diabetes. Briefly: rat model of STZ induced diabetes (diabetic nephropathy), kidney histology. The class given is in vivo. The following applies: male Wistar rats, STZ 50 mg/kg i.p., 8 mg/kg/day oral, kidney day 43, p<0.01 vs STZ-vehicle. The source says: Diabetic nephropathy is a common manifestation of renal disease and is defined as the progressive development of renal insufficiency in the setting of hyperglycaemia. This sustained hyperglycaemia causes glomerular mesangial expansion through increased synthesis and decreased degradation of extracellular matrix protein, which progressively destroys the glomerular capillaries, eventually leading to proteinuria and renal failure. Animal models for diabetes can be employed for assessing the mechanisms of the disease, screening potential therapies for the treatment of this condition, and evaluation of therapeutic options. […] A single intraperitoneal injection of STZ in rats results in selective damage of the insulin producing beta cells in the pancreas causing insulin deficiency and subsequent hyperglycaemia after 48 hours. Over the time course of this procedure which can last from 3 weeks to many months, animals develop modest elevations in albuminuria and serum creatinine and some of the histological lesions associated with diabetic nephropathy. The aim of this study was to determine the efficacy of a test compound CCR2 antagonist (Example 33) in a rat model of STZ induced diabetes.
Male Wistar rats were given daily oral administration of the vehicle (30% w/v hydroxypropyl-beta-cyclodextrin (HPBC)) in saline to groups 1 and 3, or oral administration of Example 33 (8 mg/kg/day) to group 2, from 3 days prior to administration of streptozotocin. On day 0 streptozotocin was injected (50 mg/kg body wt, i.p. dissolved in 20 mM sodium citrate buffer) to rats in groups 1 and 2 (STZ groups). Group 3 rats (sham) were injected with an equivalent volume of 20 mM sodium citrate buffer. On day 43 all animals were culled, the left kidney was removed and cut in a sagittal section. These tissue samples were fixed by immersion in 10% (wt/vol) formaldehyde in phosphate-buffered saline (PBS) (0.01 mol/L, pH 7.4) at room temperature. […] The measured parameters were 1) monocyte and macrophage infiltration, 2) tubular damage and 3) glomerular damage. […]

The structures appear in SMILES notation.

T1 sequence (P41597 whole entry): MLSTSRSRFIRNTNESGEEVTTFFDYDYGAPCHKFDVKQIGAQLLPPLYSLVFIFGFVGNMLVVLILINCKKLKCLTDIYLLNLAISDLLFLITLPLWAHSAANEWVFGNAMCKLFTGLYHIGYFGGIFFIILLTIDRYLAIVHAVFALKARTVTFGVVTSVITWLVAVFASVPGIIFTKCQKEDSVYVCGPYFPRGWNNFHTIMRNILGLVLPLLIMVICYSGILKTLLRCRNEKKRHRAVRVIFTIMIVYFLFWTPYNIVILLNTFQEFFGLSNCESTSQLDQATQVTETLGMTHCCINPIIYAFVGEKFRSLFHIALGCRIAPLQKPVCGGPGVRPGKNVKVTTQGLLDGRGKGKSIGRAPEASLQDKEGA

Take `Oc1c(Cc2cccc(C(F)(F)F)c2)c(C2CC2)nc2ccnn12` [Example 22, 5-Cycloproyl-6-{[3-(trifluoromethyl)-phenyl]methyl}pyrazolo[1,5-a]pyrimidin-7-ol]: the Ki on human CCR2 [1] is 10 to 100 nM; on human CCR2 [2], below 10 nM.

`Oc1c(Cc2cc(F)cc(C(F)(F)F)c2)c(C2CC2)nc2ccnn12` [Example 33, 5-Cyclopropyl-6-{[3-fluoro-5-(trifluoro-methyl)phenyl]methyl}pyrazolo[1,5-a]-pyrimidin-7-ol]: in experiment [3], the “glomerular damage (semiquantitative score)” value is given as “statistically significant effect reducing”; the “monocyte and macrophage infiltration (semiquantitative score)” value is “statistically significant effect reducing”; the “tubular damage (semiquantitative score)” value is given as “statistically significant effect reducing”. Also, at human CCR2 [1], the Ki is 10 to 100 nM. Moreover, at human CCR2 [2], the Ki is below 10 nM.

In the case of `CC(C)c1nc2ccnn2c(O)c1Cc1ccc(F)c(Cl)c1` [Example 37, 6-[(3-Chloro-4-fluorophenyl)methyl]-5-(propan-2-yl)pyrazolo[1,5-a]pyrimidin-7-ol], the Ki on human CCR2 [1] and at human CCR2 [2] was below 10 nM each time.

Regarding `CC(C)c1nc2ccnn2c(O)c1Cc1ccc(F)c(C(F)(F)F)c1` [Example 40, 6-{[4-Fluoro-3-(trifluoromethyl)phenyl]-methyl}-5-(propan-2-yl)pyrazolo[1,5-a]-pyrimidin-7-ol], the Ki at human CCR2 [1] was 100 to 1000 nM; on human CCR2 [2] it was below 10 nM.

On to `CCc1nc2ccnn2c(O)c1Oc1ccc(Cl)c(Cl)c1` [Example 64, 6-(3,4-Dichlorophenoxy)-5-ethyl-pyrazolo[1,5-a]pyrimidin-7-ol], for which the Ki at human CCR2 [1] is 10 to 100 nM; on human CCR2 [2], below 10 nM.

`Oc1c(Oc2ccc(Br)cc2)c(C2CC2)nc2ccnn12` [Example 65, 6-(4-Bromophenoxy)-5-cyclopropyl-pyrazolo[1,5-a]pyrimidin-7-ol]: the Ki at human CCR2 [1] was 100 to 1000 nM; at human CCR2 [2] it was below 10 nM.

For the molecule `CCOC(=O)c1nc2ccnn2c(O)c1Cc1cccc(Cl)c1` [Example 70, Ethyl 6-[(3-chlorophenyl)methyl]-7-hydroxypyrazolo[1,5-a]pyrimidine-5-carboxylate], the results for the Ki at human CCR2 [1] and on human CCR2 [2] were 100 to 1000 nM and below 10 nM, respectively.

For `CCOC(=O)c1nc2ccnn2c(O)c1Cc1ccc(Cl)c(Cl)c1` [Example 72, Ethyl 6-[(3,4-dichlorophenyl)methyl]-7-hydroxypyrazolo[1,5-a]pyrimidine-5-carboxylate], the Ki on human CCR2 [1] was 10 to 100 nM; at human CCR2 [2], below 10 nM.

The record behind these values is patent publication US20130252951A1, “7-HYDROXY-PYRAZOLO[1,5-A] PYRIMIDINE COMPOUNDS AND THEIR USE AS CCR2 RECEPTOR ANTAGONISTS” (Proximagen Limited, priority 2010, published 2013).
